Data: patent publication US8796289B2 (AbbVie Inc., priority 2011, dated 2014)

What follows are compounds tested against GST-tagged-Wee1 kinase (Homo sapiens, UniProt P30291) (assay: Wee1 time-resolved fluorescence equilibrium binding assay (displacement of Oregon Green-labeled ATP-competitive kinase probe)).
Procedure: Wee1 kinase was assayed using a time-resolved fluorescence equilibrium binding assay monitoring displacement of a rapidly reversible Oregon Green-labeled ATP-competitive kinase probe (N-(2-(2-(2-(4-(4-(5-chloro-4-(2-(1-hydroxycyclobutyl)thiazol-5-yl)-1H-pyrrolo[2,3-b]pyridin-2-yl)phenyl)piperazin-1-yl)ethoxy)ethoxy)ethyl)-2′,7′-difluoro-3′,6′-dihydroxy-3-oxo-3H-spiro[isobenzofuran-1,9′-xanthene]-5-carboxamide) by competitive Wee1 inhibitors.

Chain of GST-tagged-Wee1 kinase (P30291 whole entry): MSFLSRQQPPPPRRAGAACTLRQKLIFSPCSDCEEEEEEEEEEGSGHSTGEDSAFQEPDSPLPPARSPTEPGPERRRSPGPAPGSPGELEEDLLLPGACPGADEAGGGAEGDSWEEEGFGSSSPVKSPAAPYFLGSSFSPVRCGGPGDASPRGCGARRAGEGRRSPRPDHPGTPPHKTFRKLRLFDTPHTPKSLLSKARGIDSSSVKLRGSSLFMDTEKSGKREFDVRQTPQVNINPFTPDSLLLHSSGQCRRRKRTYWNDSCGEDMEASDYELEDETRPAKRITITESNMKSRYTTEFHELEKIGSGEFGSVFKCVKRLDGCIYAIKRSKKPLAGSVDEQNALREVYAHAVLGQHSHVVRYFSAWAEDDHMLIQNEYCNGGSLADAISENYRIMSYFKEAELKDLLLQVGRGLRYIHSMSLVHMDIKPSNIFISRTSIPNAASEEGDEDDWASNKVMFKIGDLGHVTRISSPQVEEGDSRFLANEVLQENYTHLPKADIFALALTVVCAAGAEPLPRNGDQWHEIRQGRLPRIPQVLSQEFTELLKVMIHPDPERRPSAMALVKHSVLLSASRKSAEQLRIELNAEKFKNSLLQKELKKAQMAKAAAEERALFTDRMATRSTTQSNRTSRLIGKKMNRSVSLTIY

SMILES	Ki [nM]
Cc1nn(-c2c(Cl)cccc2Cl)c(=O)c2cnc(Nc3ccc4c(c3)C(C)(C)N(C)CC4)nc12 [Example 443, 6-(2,6-dichlorophenyl)-8-methyl-2-[(1,1,2-trimethyl-1,2,3,4-tetrahydroisoquinolin-7-yl)amino]pyrimido[4,5-d]pyridazin-5(6H)-one]	0.3
C=CCn1nc(-c2ccccc2)c2nc(Nc3ccc(N4CCN(C(C)C)CC4)c(OC)c3)ncc2c1=O [Example 114, 6-allyl-2-{[4-(4-isopropylpiperazin-1-yl)-3-methoxyphenyl]amino}-8-phenylpyrimido[4,5-d]pyridazin-5(6H)-one]	3
CC(C)N1CCN(c2ccc(Nc3ncc4c(=O)n(-c5ccccc5Cl)nc(-c5cccs5)c4n3)cc2)CC1 [Example 122, 6-(2-chlorophenyl)-2-{[4-(4-isopropylpiperazin-1-yl)phenyl]amino}-8-(2-thienyl)pyrimido[4,5-d]pyridazin-5(6H)-one]	0.5
Cc1nn(-c2c(Cl)cccc2Cl)c(=O)c2cnc(Nc3ccc(OC4CCN(C)CC4)cc3)nc12 [Example 503, 6-(2,6-dichlorophenyl)-8-methyl-2-({4-[(1-methylpiperidin-4-yl)oxy]phenyl}amino)pyrimido[4,5-d]pyridazin-5(6H)-one]	0.1
CN1CCN(c2ccc(Nc3ncc4c(=O)n(-c5c(Cl)cccc5Cl)nc(-c5ccc(Br)cc5)c4n3)cc2)CC1 [Example 276, 8-(4-bromophenyl)-6-(2,6-dichlorophenyl)-2-{[4-(4-methylpiperazin-1-yl)phenyl]amino}pyrimido[4,5-d]pyridazin-5(6H)-one]	1.1
COC(=O)c1cc(-c2nn(-c3c(Cl)cccc3Cl)c(=O)c3cnc(Nc4ccc(N5CCN(C)CC5)cc4)nc23)ccn1 [Example 222, methyl 4-[6-(2,6-dichlorophenyl)-2-{[4-(4-methylpiperazin-1-yl)phenyl]amino}-5-oxo-5,6-dihydropyrimido[4,5-d]pyridazin-8-yl]pyridine-2-carboxylate]	0.2
O=c1c2cnc(Nc3ccc(N4CCNCC4)cc3)nc2c(-c2cnccn2)nn1-c1c(Cl)cccc1Cl [Example 220, 6-(2,6-dichlorophenyl)-2-{[4-(piperazin-1-yl)phenyl]amino}-8-(pyrazin-2-yl)pyrimido[4,5-d]pyridazin-5(6H)-one]	0.4
